Measurements taken from patent US20230085307A1, “PYRIDAZINONE COMPOUND AND HERBICIDE” (NISSAN CHEMICAL CORPORATION, priority 2019, published 2023).

Assays:
windgrass = experiment: Test Example 5: herbicidal effect by foliage application, plastic box (Table 20, symbol L); format: in vivo, windgrass (Apera spica-venti); settings: foliage application, AAH 320 g/ha, evaluated three weeks after application
Summary of the method: (§1)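 Plants were sown into sterilized diluvial soil under about 1.5 cm cover and kept in a greenhouse at 25° C. to 30° C. Fourteen days on, foliage received an even spray of the diluted emulsion. Herbicidal or crop effect was judged three weeks afterwards.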

barnyard grass [1] = experiment: Test Example 5: herbicidal effect by foliage application, plastic box (Table 20, symbol H); format: in vivo, barnyard grass (Echinochloa crus-galli); settings: foliage application, AAH 320 g/ha, evaluated three weeks after application
Summary of the method: as §1

blackgrass = experiment: Test Example 5: herbicidal effect by foliage application, plastic box (Table 20, symbol J); format: in vivo, blackgrass (Alopecurus myosuroides); settings: foliage application, AAH 320 g/ha, evaluated three weeks after application
Summary of the method: as §1

Italian ryegrass = experiment: Test Example 5: herbicidal effect by foliage application, plastic box (Table 20, symbol K); format: in vivo, Italian ryegrass (Lolium multiflorum); settings: foliage application, AAH 320 g/ha, evaluated three weeks after application
Summary of the method: as §1

oval-leafed pondweed = experiment: Test Example 1: herbicidal activity, application before weed generation under submerged conditions (Table 16, symbol C); format: in vivo, oval-leafed pondweed (Monochoria vaginalis); settings: 320 g/ha applied herbicide
Source text: [Test Example 1] Herbicidal Activity Test by Application before Weed Generation under Submerged Conditions After alluvial soil was placed into 1/10000 are of Wagner pot, water was poured and mixed to form a submerged condition having a water depth of 4 cm. Seeds of late watergrass, Japanese bulrush, and oval-leafed pondweed were sowed in a mixed manner in the aforementioned pot, and then 2.5 leaf stage rice plant seedlings were transplanted thereto. On the day of sowing seeds, the emulsion agent of the compound of the present invention prepared according to Formulation Example 2 was diluted with water so as to achieve a predetermined herbicide amount, and the diluted emulsion agent was applied to the surface of the water. The pot was placed in a greenhouse at 25° C. to 30° C. for growth of the plants. Three weeks after the herbicide application, the effect of the herbicide on each plant was evaluated according to the following criteria. Evaluation Criteria 5: Herbicidal rate of 90% or more (almost completely withered) 4: Herbicidal rate of 70% or more and less than 90% 3: Herbicidal rate of 40% or more and less than 70% 2: Herbicidal rate of 20% or more and less than 40% 1: Herbicidal rate of 5% or more and less than 20% 0: Herbicidal rate of 5% or less (almost no effect)

velvetleaf = experiment: Test Example 5: herbicidal effect by foliage application, plastic box (Table 20, symbol M); format: in vivo, velvetleaf (Abutilon theophrasti); settings: foliage application, AAH 320 g/ha, evaluated three weeks after application
Summary of the method: as §1

Japanese bulrush = experiment: Test Example 1: herbicidal activity, application before weed generation under submerged conditions (Table 16, symbol B); format: in vivo, Japanese bulrush (Schoenoplectus juncoides); settings: 320 g/ha applied herbicide
Summary of the method: (§2)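 Emulsion formulation, water-diluted to set dose, was put onto the flooded surface (4 cm depth, alluvial soil) the same day weeds were sown and 2.5-leaf rice transplanted. After 3 weeks at 25-30 °C under glass, each species was rated 0 (≤5% kill) to 5 (≥90% kill).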

lambsquarters = experiment: Test Example 5: herbicidal effect by foliage application, plastic box (Table 20, symbol O); format: in vivo, lambsquarters (Chenopodium album); settings: foliage application, AAH 320 g/ha, evaluated three weeks after application
Summary of the method: as §1

southern crabgrass = experiment: Test Example 5: herbicidal effect by foliage application, plastic box (Table 20, symbol F); format: in vivo, southern crabgrass (Digitaria ciliaris); settings: foliage application, AAH 320 g/ha, evaluated three weeks after application
Summary of the method: as §1

green foxtail = experiment: Test Example 5: herbicidal effect by foliage application, plastic box (Table 20, symbol G); format: in vivo, green foxtail (Setaria viridis); settings: foliage application, AAH 320 g/ha, evaluated three weeks after application
Summary of the method: as §1

wild oat = experiment: Test Example 5: herbicidal effect by foliage application, plastic box (Table 20, symbol I); format: in vivo, wild oat (Avena fatua); settings: foliage application, AAH 320 g/ha, evaluated three weeks after application
Summary of the method: as §1

persian speedwell = experiment: Test Example 5: herbicidal effect by foliage application, plastic box (Table 20, symbol R); format: in vivo, Persian speedwell (Veronica persica); settings: foliage application, AAH 320 g/ha, evaluated three weeks after application
Summary of the method: as §1

redroot pigweed = experiment: Test Example 5: herbicidal effect by foliage application, plastic box (Table 20, symbol N); format: in vivo, redroot pigweed (Amaranthus retroflexus); settings: foliage application, AAH 320 g/ha, evaluated three weeks after application
Summary of the method: as §1

late watergrass = experiment: Test Example 1: herbicidal activity, application before weed generation under submerged conditions (Table 16, symbol A); format: in vivo, late watergrass (Echinochloa oryzicola); settings: 320 g/ha applied herbicide
Summary of the method: as §2

rice flat sedge = experiment: Test Example 3: herbicidal effect by foliage application, Wagner pot (Table 18, symbol E); format: in vivo, rice flat sedge (Cyperus iria); settings: amount of applied herbicide 320 g/ha
Summary of the method: (§3)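 Plants were sown in alluvial soil held under 0.1–0.5 cm standing water and grown 14 days in a greenhouse at 25–30 °C. An emulsifiable formulation, water-diluted to the set dose, was then sprayed onto the foliage, and effects were scored three weeks later using previously defined criteria.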

barnyard grass [2] = experiment: Test Example 3: herbicidal effect by foliage application, Wagner pot (Table 18, symbol H); format: in vivo, barnyard grass (Echinochloa crus-galli); settings: amount of applied herbicide 320 g/ha
Summary of the method: as §3

Chinese sprangletop = experiment: Test Example 3: herbicidal effect by foliage application, Wagner pot (Table 18, symbol D); format: in vivo, chinese sprangletop (Leptochloa chinensis); settings: amount of applied herbicide 320 g/ha
Summary of the method: as §3

| Compound | L: windgrass, herbicidal effect (criteria 0-5) (windgrass) | H: barnyard grass, herbicidal effect (criteria 0-5) (barnyard grass [1]) | J: blackgrass, herbicidal effect (criteria 0-5) (blackgrass) | K: Italian ryegrass, herbicidal effect (criteria 0-5) (Italian ryegrass) | Herbicidal effect on C: oval-leafed pondweed (grade 0-5) (oval-leafed pondweed) | M: velvetleaf, herbicidal effect (criteria 0-5) (velvetleaf) | Herbicidal effect on B: Japanese bulrush (grade 0-5) (Japanese bulrush) | O: lambsquarters, herbicidal effect (criteria 0-5) (lambsquarters) | F: southern crabgrass, herbicidal effect (criteria 0-5) (southern crabgrass) | G: green foxtail, herbicidal effect (criteria 0-5) (green foxtail) | I: wild oat, herbicidal effect (criteria 0-5) (wild oat) | R: persian speedwell, herbicidal effect (criteria 0-5) (persian speedwell) | N: redroot pigweed, herbicidal effect (criteria 0-5) (redroot pigweed) | Herbicidal effect on A: late watergrass (grade 0-5) (late watergrass) | herbicidal effect on E: rice flat sedge (rice flat sedge) | herbicidal effect on H: barnyard grass (barnyard grass [2]) | herbicidal effect on D: Chinese sprangletop (Chinese sprangletop) |
| --- | --- | --- | --- | --- | --- | --- | --- | --- | --- | --- | --- | --- | --- | --- | --- | --- | --- |
| CSCCOc1cccc(-c2sc3ccc(F)cc3c2-c2c(O)c(C)nn(C)c2=O)c1 [2-273] | 0 (Herbicidal rate of 5% or less (almost no effect)) | 0 (Herbicidal rate of 5% or less (almost no effect)) | 0 (Herbicidal rate of 5% or less (almost no effect)) | 1 (Herbicidal rate of 5% or more and less than 20%) | 0 (Herbicidal rate of 5% or less (almost no effect)) | 0 (Herbicidal rate of 5% or less (almost no effect)) | 0 (Herbicidal rate of 5% or less (almost no effect)) | 0 (Herbicidal rate of 5% or less (almost no effect)) | 0 (Herbicidal rate of 5% or less (almost no effect)) | 0 (Herbicidal rate of 5% or less (almost no effect)) | 0 (Herbicidal rate of 5% or less (almost no effect)) | 4 (Herbicidal rate of 70% or more and less than 90%) | 2 (Herbicidal rate of 20% or more and less than 40%) | 3 (Herbicidal rate of 40% or more and less than 70%) |  |  |  |
| CCCC(=O)Oc1c(C)nn(C)c(=O)c1-c1c(-c2ccc(Cl)cc2Cl)sc2ccc(F)cc12 [2-347] | 3 (Herbicidal rate of 40% or more and less than 70%) | 0 (Herbicidal rate of 5% or less (almost no effect)) | 0 (Herbicidal rate of 5% or less (almost no effect)) | 0 (Herbicidal rate of 5% or less (almost no effect)) | 0 (Herbicidal rate of 5% or less (almost no effect)) | 0 (Herbicidal rate of 5% or less (almost no effect)) | 0 (Herbicidal rate of 5% or less (almost no effect)) | 3 (Herbicidal rate of 40% or more and less than 70%) | 0 (Herbicidal rate of 5% or less (almost no effect)) | 0 (Herbicidal rate of 5% or less (almost no effect)) | 3 (Herbicidal rate of 40% or more and less than 70%) | 4 (Herbicidal rate of 70% or more and less than 90%) | 0 (Herbicidal rate of 5% or less (almost no effect)) | 3 (Herbicidal rate of 40% or more and less than 70%) | 4 (Herbicidal rate of 70% or more and less than 90%) | 4 (Herbicidal rate of 70% or more and less than 90%) | 4 (Herbicidal rate of 70% or more and less than 90%) |
